Measured values: patent USRE40086E1, “Method for treating bacterial infection with novel 7-substituted-9-substituted amino 6-demethyl-6-deoxytetracyclines” (Wyeth Holdings Corporation, priority 1991, dated 2008)
In brackets after ≈: the same amount, converted by molar mass. Entries after “also recorded” stand apart in the source; their conditions may differ.

How the values were obtained:
[1] = system: tetracycline sensitive and resistant Gram-positive and Gram-negative bacteria; assay: In vitro antibacterial evaluation, MIC by agar dilution (general, Tables I-V and IA); type: cell-based; conditions: summary of Tables I-V
[2] = system: S. aureus IVES 1983 (meth. resistant); assay: MIC, agar dilution; type: cell-based; conditions: Staphylococcus aureus
[3] = system: S. aureus UBMS 90-1 (tetM); assay: MIC, agar dilution; type: cell-based; conditions: S. aureus UBMS 90-1 (tetM)
Proteus spp. indole+ = assay: MIC against clinical isolates (Table V, A and O); type: cell-based
E. coli UBMS 90-4 (tetM) = assay: MIC, agar dilution; type: cell-based; conditions: Escherichia coli
[4] = system: E. faecalis UBMS 90-7 (tetM); assay: MIC, agar dilution; type: cell-based; conditions: Enterococcus faecalis
Klebsiella pneumoniae = assay: MIC against clinical isolates (Table V, A and O); type: cell-based; conditions: Klebsiella pneumoniae
[5] = system: E. faecalis UBMS 90-6 (tetM); assay: MIC, agar dilution; type: cell-based; conditions: Enterococcus faecalis
E. coli ATCC 25922 = assay: MIC, agar dilution; type: cell-based; conditions: Escherichia coli, ATCC25922
E. faecalis ATCC 29212 = assay: MIC, agar dilution; type: cell-based; conditions: Enterococcus faecalis, ATCC29212
[6] = system: S. aureus ATCC 29213 (Sensitive); assay: MIC, agar dilution; type: cell-based; conditions: Staphylococcus aureus, ATCC29213
Escherichia coli = assay: MIC against clinical isolates (Table V, A and O); type: cell-based; conditions: Escherichia coli
[7] = system: N. gonorrhoeae IL 611 (Sensitive); assay: MIC, agar dilution; type: cell-based; conditions: Neisseria gonorrhoeae
E. coli UBMS 89-1 (tetM) = assay: MIC, agar dilution; type: cell-based; conditions: Escherichia coli
[8] = system: S. aureus Smith (Sensitive); assay: MIC, agar dilution; type: cell-based; conditions: Staphylococcus aureus
S. aureus UBMS 90-1 = assay: In vivo antibacterial evaluation, acute lethal infection in mice; conditions: Staphylococcus aureus, UBMS901, sc, read-out: ED50, median effective dose protecting 50% of the infected mice; mice infected with S. aureus UBMS 90-1 (tetM), single subcutaneous dosing
Description: (§1) In Vivo Antibacterial Evaluation (Table VII)

S. aureus UBMS 90-2 = assay: as above; conditions: Staphylococcus aureus, UBMS902, sc, read-out: ED50, median effective dose protecting 50% of the infected mice; mice infected with S. aureus UBMS 90-2 (tetM), single subcutaneous dosing
Description: as §1

[9] = system: E. coli cell-free ribosomes, strain MRE 600 (TC Sensitive Host); assay: E. coli in vitro cell free protein translation system (Table VI); type: biochemical
[10] = system: S. aureus UBMS 90-3 (Sensitive); assay: MIC, agar dilution; type: cell-based; conditions: Staphylococcus aureus, S. aureus UBMS 90-3 (Sensitive)
E. coli UBMS 88-1 (tetB) = assay: MIC, agar dilution; type: cell-based; conditions: Escherichia coli, E. coli UBMS 88-1 (tetB)
[11] = system: N. gonorrhoeae 6418 (tetM); assay: MIC, agar dilution; type: cell-based; conditions: Neisseria gonorrhoeae
Neisseria gonorrhoeae = assay: MIC against clinical isolates (Table V, A and O); type: cell-based
Bacteroides spp. = assay: MIC against clinical isolates (Table V, A and O); type: cell-based
[12] = system: E. coli UBMS 88-2 (Sensitive); assay: MIC, agar dilution; type: cell-based; conditions: Escherichia coli
[13] = system: S. aureus UBMS 88-7 (tetK); assay: MIC, agar dilution; type: cell-based; conditions: Staphylococcus aureus
[14] = system: E. coli cell-free ribosomes, strain MRE 600 (tetM) (Tet M Host); assay: E. coli in vitro cell free protein translation system (Table VI); type: biochemical
Enterococcus faecium = assay: MIC against clinical isolates (Table V, A and O); type: cell-based
[15] = system: S. aureus IVES 2943 (meth. resistant); assay: MIC, agar dilution; type: cell-based; conditions: Staphylococcus aureus
[16] = system: S. aureus UBMS 90-2 (tetM); assay: MIC, agar dilution; type: cell-based; conditions: Staphylococcus aureus, S. aureus UBMS 90-2 (tetM)
[17] = system: S. haemolyticus AVAH 88-3; assay: MIC, agar dilution; type: cell-based; conditions: Staphylococcus haemolyticus, AVAH883
Haemophilus influenzae = assay: MIC against clinical isolates (Table V, A and O); type: cell-based; conditions: (18) tested
[18] = system: S. aureus UBMS 88-5 (tetM); assay: MIC, agar dilution; type: cell-based; conditions: S. aureus UBMS 88-5 (tetM)
[19] = system: S. aureus UBMS 88-4 (Sensitive); assay: MIC, agar dilution; type: cell-based; conditions: S. aureus UBMS 88-4 (Sensitive)
Enterococcus faecalis = assay: MIC against clinical isolates (Table V, A and O); type: cell-based
E. faecalis 12201 = assay: MIC, agar dilution; type: cell-based; conditions: Enterococcus faecalis, 12201
[20] = system: E. coli UBMS 89-2 (Sensitive); assay: MIC, agar dilution; type: cell-based; conditions: Escherichia coli

In the case of `CN(C)c1cc(NC=O)c(O)c2c1CC1CC3C(N(C)C)C(O)=C(C(N)=O)C(=O)C3(O)C(O)=C1C2=O` (stereo not shown), the “antibacterial activity in vitro (in words)” value [1] was “good in vitro activity against tetracycline resistant strains containing the tetM resistance determinant; also recorded: superior to that of minocycline against other isolates”.

`CN(C)c1cc(NC=O)c(O)c2c1CC1CC3C(N(C)C)C(O)=C(C(N)=O)C(=O)C3(O)C(O)=C1C2=O` (stereo not shown) [Compound A, 7-(Dimethylamino)-9-(formylamino)-6-demethyl-6-deoxytetracycline] showed an MIC [2] of 8 µg/mL (≈ 16 µM), an MIC [3] of 0.12 µg/mL (≈ 0.24 µM) and an MIC ([3]; Staphylococcus aureus) of 0.06 µg/mL (≈ 0.12 µM). The MIC50 (Proteus spp. indole+) was 2 µg/mL (≈ 4 µM), the MIC90 (Proteus spp. indole+) was greater than 32 µg/mL and the MIC (E. coli UBMS 90-4 (tetM)) was 1 µg/mL (≈ 2 µM). The MIC [4] was 0.5 µg/mL (≈ 0.999 µM), the MIC50 (Klebsiella pneumoniae) was 0.5 µg/mL (≈ 0.999 µM) and the MIC90 (Klebsiella pneumoniae) was 0.5 µg/mL (≈ 0.999 µM). For the same compound, the MIC [5] was 0.12 µg/mL (≈ 0.24 µM), the MIC (E. coli ATCC 25922) was 0.06 µg/mL (≈ 0.12 µM) and the MIC (E. faecalis ATCC 29212) was no more than 0.015 µg/mL. It also gave an MIC [6] of no more than 0.015 µg/mL, an MIC50 (Escherichia coli) of 0.25 µg/mL (≈ 0.499 µM) and an MIC90 (Escherichia coli) greater than 32 µg/mL. The MIC [7] was 0.06 µg/mL (≈ 0.12 µM), the MIC (E. coli UBMS 89-1 (tetM)) was 0.12 µg/mL (≈ 0.24 µM) and the MIC [8] was no more than 0.015 µg/mL. The ED50 (S. aureus UBMS 90-1) was 0.22 mg/kg, the ED50 (S. aureus UBMS 90-2) was 0.49 mg/kg and the “IC50, concentration of antibiotic required to inhibit protein synthesis by 50% compared to a drug-free control” value [9] was less than 0.3 µg/mL. For the same compound, the MIC [10] was no more than 0.015 µg/mL, the MIC (E. coli UBMS 88-1 (tetB)) was 32 µg/mL (≈ 63.9 µM) and the MIC [11] was 1 µg/mL (≈ 2 µM). For the same compound, the MIC50 (Neisseria gonorrhoeae; Neisseria gonorrhoeae) was 0.03 µg/mL (≈ 0.0599 µM), the MIC90 (Neisseria gonorrhoeae; Neisseria gonorrhoeae) was 1 µg/mL (≈ 2 µM) and the “MIC Range” value (Neisseria gonorrhoeae; Neisseria gonorrhoeae clinical isolates, (9) tested) was 0.015 to 1.00 µg/mL. For the same compound, the MIC50 (Bacteroides spp.; Bacteroides) was 0.25 µg/mL (≈ 0.499 µM), the MIC90 (Bacteroides spp.; Bacteroides) was 2 µg/mL (≈ 4 µM) and the “MIC Range” value (Bacteroides spp.; Bacteroides spp. clinical isolates, (15) tested) was greater than 0.15 to 4.00 µg/mL. The MIC [12] was 0.12 µg/mL (≈ 0.24 µM), the MIC [13] was 2 µg/mL (≈ 4 µM) and the “IC50, concentration of antibiotic required to inhibit protein synthesis by 50% compared to a drug-free control” value [14] was 0.4 µg/mL. For the same compound, the MIC50 (Enterococcus faecium; Enterococcus faecium) was 0.06 µg/mL (≈ 0.12 µM), the MIC90 (Enterococcus faecium; Enterococcus faecium) was 2 µg/mL (≈ 4 µM) and the “MIC Range” value (Enterococcus faecium; Enterococcus faecium clinical isolates, (11) tested) was less than 0.015 to 2.00 µg/mL. The MIC [15] was 4 µg/mL (≈ 7.99 µM), the MIC [16] was 0.03 µg/mL (≈ 0.0599 µM) and the MIC [17] was 0.03 µg/mL (≈ 0.0599 µM). The MIC50 (Haemophilus influenzae) was 0.06 µg/mL (≈ 0.12 µM), the MIC90 (Haemophilus influenzae) was 0.06 µg/mL (≈ 0.12 µM) and the “MIC Range” value (Haemophilus influenzae) was less than 0.008 to 0.06 µg/mL. The MIC [18] was 0.03 µg/mL (≈ 0.0599 µM), the MIC ([18]; Staphylococcus aureus) was 0.06 µg/mL (≈ 0.12 µM) and the MIC [19] was less than 0.015 µg/mL. For the same compound, the MIC ([19]; Staphylococcus aureus) was 0.015 µg/mL (≈ 0.03 µM), the MIC50 (Enterococcus faecalis; Enterococcus faecalis) was 0.12 µg/mL (≈ 0.24 µM) and the MIC90 (Enterococcus faecalis; Enterococcus faecalis) was 1 µg/mL (≈ 2 µM). The “MIC Range” value (Enterococcus faecalis; Enterococcus faecalis clinical isolates, (14) tested) was less than 0.015 to 2.00 µg/mL, the MIC (E. faecalis 12201) was 0.12 µg/mL (≈ 0.24 µM) and the MIC [20] was 0.12 µg/mL (≈ 0.24 µM).
